# Calls of active or inactive are those of the source. The calls are words filed in the database; no cut-off is given here.
# Key:
# Staphylococcus aureus [1] = test: Antibacterial activity against methicillin-resistant Staphylococcus aureus ATCC 43300 incubated for 16 hrs under shaking condition by standard broth microdilution method; type: functional
# Staphylococcus aureus [2] = test: Antibacterial activity against Staphylococcus aureus NCTC 10788 incubated for 16 hrs under shaking condition by standard broth microdilution method; type: functional
# Escherichia coli [3] = test: Antibacterial activity against Escherichia coli NCTC 10418 incubated for 16 hrs under shaking condition by standard broth microdilution method; type: functional
# Pseudomonas aeruginosa [4] = test: Antibacterial activity against Pseudomonas aeruginosa ATCC 27853 incubated for 16 hrs under shaking condition by standard broth microdilution method; type: functional
# [5] = Hemolytic activity at horse Erythrocyte assessed as hemolysis; type: toxicity, cell-based, Equus caballus; conditions: horse erythrocytes
# [6] = Hemolytic activity at mouse Red blood cell assessed as hemolysis; type: toxicity, cell-based; conditions: erythrocyte
# Cell membrane [7] = test: Induction of inner membrane disruption in Pseudomonas aeruginosa assessed as fluorescence intensity at 8 times MIC by DISC3-5 dye based fluorescence analysis; type: subcellular
# Cell membrane [8] = test: Induction of inner membrane disruption in […] assessed as change in fluorescence intensity at 8 times MIC by DISC3-5 dye based fluorescence analysis; type: subcellular
# Cell membrane [9] = test: Disruption of cell membrane integrity in methicillin-resistant Staphylococcus aureus assessed as reduction in green to red fluorescence by STYO 9 and PI staining based confocal microscopy analysis; type: subcellular
# Cell membrane [10] = test: Disruption of cell membrane integrity in Staphylococcus aureus assessed as reduction in green to red fluorescence by STYO 9 and PI staining based confocal microscopy analysis; type: subcellular
# Cell membrane [11] = test: Induction of cytoplasmic membrane depolarization in Pseudomonas aeruginosa assessed as change in fluorescence intensity by DISC3-5 dye based fluorescence analysis; type: subcellular
# Cell membrane [12] = test: Induction of cytoplasmic membrane depolarization in […] assessed as change in fluorescence intensity by DISC3-5 dye based fluorescence analysis; type: subcellular
# Cell membrane [13] = test: Induction of cytoplasmic membrane depolarization in […] assessed as increase in fluorescence intensity by DISC3-5 dye based fluorescence analysis; type: subcellular
# Escherichia coli [14] = test: Antibacterial activity against Escherichia coli CMCC 44102 incubated for 16 hrs under shaking condition by standard broth microdilution method; type: functional
# Escherichia coli [15] = test: Antibacterial activity against Escherichia coli ATCC 25922 incubated for 16 hrs under shaking condition by standard broth microdilution method; type: functional
# Escherichia coli [16] = test: Antibacterial activity against Escherichia coli DC 29755 incubated for 16 hrs under shaking condition by standard broth microdilution method; type: functional
# Pseudomonas aeruginosa [17] = test: Antibacterial activity against Pseudomonas aeruginosa TL 11001 incubated for 16 hrs under shaking condition by standard broth microdilution method; type: functional
# Pseudomonas aeruginosa [18] = test: Antibacterial activity against Pseudomonas aeruginosa TL 11004 incubated for 16 hrs under shaking condition by standard broth microdilution method; type: functional
# Pseudomonas aeruginosa [19] = test: Antibacterial activity against Pseudomonas aeruginosa TL 11005 incubated for 16 hrs under shaking condition by standard broth microdilution method; type: functional
# Klebsiella pneumoniae = test: Antibacterial activity against Klebsiella pneumoniae FK 16298 incubated for 16 hrs under shaking condition by standard broth microdilution method; type: functional
# Cell membrane [20] = test: Induction of cell membrane depolarization in Pseudomonas aeruginosa assessed as fluorescence intensity by DISC3-5 dye based fluorescence analysis; type: subcellular
# Lipid bilayer = test: Disruption of membrane integrity in bacterial cell membrane mimic POPC/POPG LUVs assessed as calcein leakage measured for 30 mins by fluorescence based analysis
# Cell membrane [21] = test: Induction of outer membrane permeability in Pseudomonas aeruginosa assessed as fluorescence intensity by 1-N-Nphenylnaphthylamine fluorescent probe based analysis; type: subcellular
# Lipopolysaccharide (LPS) [22] = test: Binding affinity to LPS (unknown origin) assessed as dissociation constant by MST analysis
# Lipopolysaccharide (LPS) [23] = test: Disaggregation of FITC-labeled Escherichia coli LPS assessed as fluorescence intensity at 0.01 uM measured for 30 mins relative to control
# Cell membrane [24] = test: Disruption of cell membrane integrity in Staphylococcus aureus assessed as increase in red fluorescence intensity at 0.5 times MIC by STYO 9 and PI staining based confocal microscopy analysis; type: subcellular
# Cell membrane [25] = test: Disruption of cell membrane integrity in Escherichia coli assessed as increase in red fluorescence intensity at 0.5 times MIC by STYO 9 and PI staining based confocal microscopy analysis; type: subcellular
# Cell membrane [26] = test: Induction of cytoplasmic membrane depolarization in Pseudomonas aeruginosa assessed as change in fluorescence intensity in protoplast by DISC3-5 dye based fluorescence analysis; type: subcellular
# Cell membrane [27] = test: Induction of cytoplasmic membrane depolarization in Pseudomonas aeruginosa by DISC3-5 dye based fluorescence analysis; type: subcellular
# Staphylococcus aureus [28] = test: Antibacterial activity against Staphylococcus aureus incubated for 16 hrs under shaking condition in presence of LPS by standard broth microdilution method; type: functional, organism-based
# Staphylococcus aureus [29] = test: Antibacterial activity against Staphylococcus aureus incubated for 60 mins in presence of LPS; type: functional, organism-based
# Lipopolysaccharide (LPS) [30] = test: Binding affinity to LPS (unknown origin) at 4 microg/ml relative to control; conditions: dose 4.0 µg/ml
# Lipopolysaccharide (LPS) [31] = test: Disaggregation of FITC-labeled Escherichia coli LPS assessed as change in fluorescence intensity at 0.01 to 100 uM measured for 30 mins; conditions: dose 0.01-100 µM
# Lipopolysaccharide (LPS) [32] = test: Disaggregation of FITC-labeled Escherichia coli LPS assessed as change in fluorescence intensity measured for 30 mins; conditions: dose 0.1-10 µM
# Lipopolysaccharide (LPS) [33] = test: Disaggregation of FITC-labeled Escherichia coli LPS assessed as fluorescence intensity at 0.1 uM measured for 30 mins relative to control
# Lipopolysaccharide (LPS) [34] = test: Disaggregation of FITC-labeled Escherichia coli LPS assessed as fluorescence intensity at 1 uM measured for 30 mins relative to control
# Escherichia coli [35] = test: Antibacterial activity against Escherichia coli infected in skin wound infection ICR mouse model assessed as wound scabbing at 20 ug measured after 5 days by photographic analysis; type: functional, organism-based; conditions: dose 20.0 µg, time 5.0 day
# Escherichia coli [36] = test: Antibacterial activity against Escherichia coli infected in skin wound infection ICR mouse model assessed as wound scabbing at 40 ug measured after 3 days by photographic analysis; type: functional, organism-based; conditions: dose 40.0 µg, time 3.0 day
# Escherichia coli [37] = test: Antibacterial activity against Escherichia coli infected in skin wound infection ICR mouse model assessed as reduction in wound area at 20 ug measured after 7 days by photographic analysis; type: functional; set-up: scale not given: the % may be the effect or the level left; conditions: dose 20 µg; time 7 day
# Escherichia coli [38] = test: Antibacterial activity against Escherichia coli infected in skin wound infection ICR mouse model assessed as reduction in wound area at 40 ug measured after 7 days by photographic analysis; type: functional; set-up: scale not given: the % may be the effect or the level left; conditions: dose 40 µg; time 7 day
substance,measurement,setting,value
Ac-AAKILSKILKGALKVL-NH2,MIC,Staphylococcus aureus [1],4 µg/mL
same,MIC,Staphylococcus aureus [2],8 µg/mL
same,MIC,Escherichia coli [3],8 µg/mL
same,MIC,Pseudomonas aeruginosa [4],16 µg/mL
same,HC50,[5],442 µg/mL
same,MHC,[6],442 µg/mL
Ac-AARIFSRILFGALRVL-NH2,MIC,Staphylococcus aureus [1],4 µg/mL
same,MIC,Staphylococcus aureus [2],8 µg/mL
same,MIC,Escherichia coli [3],32 µg/mL
same,MIC,Pseudomonas aeruginosa [4],32 µg/mL
same,HC50,[5],110 µg/mL
same,MHC,[6],110 µg/mL
Ac-AARIFSRILRGALRVL-NH2,MIC,Staphylococcus aureus [1],8 µg/mL
same,MIC,Staphylococcus aureus [2],4 µg/mL
same,MIC,Escherichia coli [3],8 µg/mL
same,MIC,Pseudomonas aeruginosa [4],16 µg/mL
same,HC50,[5],179 µg/mL
same,MHC,[6],179 µg/mL
Ac-AARILSRILFGALRVL-NH2,MIC,Staphylococcus aureus [1],8 µg/mL
same,MIC,Staphylococcus aureus [2],8 µg/mL
same,MIC,Escherichia coli [3],32 µg/mL
same,MIC,Pseudomonas aeruginosa [4],32 µg/mL
same,HC50,[5],51.7 µg/mL
same,MHC,[6],51.663 µg/mL
Ac-AARILSRILRFALRVL-NH2,MIC,Staphylococcus aureus [1],16 µg/mL
same,MIC,Staphylococcus aureus [2],32 µg/mL
same,MIC,Escherichia coli [3],> 512 µg/mL
same,MIC,Pseudomonas aeruginosa [4],> 512 µg/mL
same,HC50,[5],34.2 µg/mL
same,MHC,[6],34.197 µg/mL
same,Flu intensity,Cell membrane [7],2410
same,Activity,Cell membrane [8],Active
same,Activity,Cell membrane [9],Active
same,Activity,Cell membrane [10],Active
Ac-AARILSRILRFFLRVL-NH2,MIC,Staphylococcus aureus [1],128 µg/mL
same,MIC,Staphylococcus aureus [2],128 µg/mL
same,MIC,Escherichia coli [3],256 µg/mL
same,MIC,Pseudomonas aeruginosa [4],> 512 µg/mL
same,HC50,[5],13.4 µg/mL
same,MHC,[6],13.37 µg/mL
Ac-AARILSRILRGALRVL-NH2,MIC,Staphylococcus aureus [1],8 µg/mL
same,MIC,Staphylococcus aureus [2],4 µg/mL
same,MIC,Escherichia coli [3],32 µg/mL
same,MIC,Pseudomonas aeruginosa [4],16 µg/mL
same,HC50,[5],403 µg/mL
same,MHC,[6],403 µg/mL
Ac-AARILSRILRRALRVL-NH2,MIC,Staphylococcus aureus [1],16 µg/mL
same,MIC,Staphylococcus aureus [2],4 µg/mL
same,MIC,Escherichia coli [3],4 µg/mL
same,MIC,Pseudomonas aeruginosa [4],8 µg/mL
same,HC50,[5],155 µg/mL
same,MHC,[6],155 µg/mL
same,Activity,Cell membrane [11],Active
same,Activity,Cell membrane [12],Active
same,Activity,Cell membrane [13],Active
same,Flu intensity,Cell membrane [7],2300
same,Activity,Cell membrane [8],Active
same,Activity,Cell membrane [9],Active
same,Activity,Cell membrane [10],Active
Ac-AARILSRILSGALRVL-NH2,MIC,Staphylococcus aureus [1],4 µg/mL
same,MIC,Staphylococcus aureus [2],4 µg/mL
same,MIC,Escherichia coli [3],16 µg/mL
same,MIC,Pseudomonas aeruginosa [4],64 µg/mL
same,HC50,[5],161 µg/mL
same,MHC,[6],161 µg/mL
same,Activity,Cell membrane [13],Active
Ac-AARIPSRILFFALVRL-NH2,MIC,Staphylococcus aureus [1],16 µg/mL
same,MIC,Staphylococcus aureus [2],16 µg/mL
same,MIC,Escherichia coli [3],64 µg/mL
same,MIC,Pseudomonas aeruginosa [4],> 512 µg/mL
same,HC50,[5],> 512 µg/mL
same,MHC,[6],> 512 µg/mL
same,Activity,Cell membrane [13],Active
Ac-AARIPSRILFGALRVL-NH2,MIC,Staphylococcus aureus [1],128 µg/mL
same,MIC,Staphylococcus aureus [2],128 µg/mL
same,MIC,Escherichia coli [3],64 µg/mL
same,MIC,Pseudomonas aeruginosa [4],256 µg/mL
same,HC50,[5],> 512 µg/mL
same,MHC,[6],> 512 µg/mL
same,MIC,Escherichia coli [14],128 µg/mL
same,MIC,Escherichia coli [15],128 µg/mL
same,MIC,Escherichia coli [16],128 µg/mL
same,MIC,Pseudomonas aeruginosa [17],512 µg/mL
same,MIC,Pseudomonas aeruginosa [18],512 µg/mL
same,MIC,Pseudomonas aeruginosa [19],128 µg/mL
same,MIC,Klebsiella pneumoniae,256 µg/mL
same,Activity,Cell membrane [11],Active
same,Activity,Cell membrane [12],Active
same,Flu intensity,Cell membrane [20],676
same,Activity,Lipid bilayer,50.1%
same,Flu intensity,Cell membrane [21],10000
same,Kd,Lipopolysaccharide (LPS) [22],39.1 µM
same,Flu intensity,Lipopolysaccharide (LPS) [23],-95
Ac-AARIPSRILFRALRVL-NH2,MIC,Staphylococcus aureus [1],16 µg/mL
same,MIC,Staphylococcus aureus [2],32 µg/mL
same,MIC,Escherichia coli [3],32 µg/mL
same,MIC,Pseudomonas aeruginosa [4],64 µg/mL
same,HC50,[5],> 512 µg/mL
same,MHC,[6],> 512 µg/mL
same,Activity,Cell membrane [13],Active
Ac-AARIPSRILKGALRVL-NH2,MIC,Staphylococcus aureus [1],256 µg/mL
same,MIC,Staphylococcus aureus [2],512 µg/mL
same,MIC,Escherichia coli [3],128 µg/mL
same,MIC,Pseudomonas aeruginosa [4],64 µg/mL
same,HC50,[5],> 512 µg/mL
same,MHC,[6],> 512 µg/mL
Ac-AARIPSRILRGALRVL-NH2,MIC,Staphylococcus aureus [1],128 µg/mL
same,MIC,Staphylococcus aureus [2],256 µg/mL
same,MIC,Escherichia coli [3],16 µg/mL
same,MIC,Pseudomonas aeruginosa [4],32 µg/mL
same,HC50,[5],> 512 µg/mL
same,MHC,[6],> 512 µg/mL
same,MIC,Escherichia coli [14],32 µg/mL
same,MIC,Escherichia coli [15],64 µg/mL
same,MIC,Escherichia coli [16],64 µg/mL
same,MIC,Pseudomonas aeruginosa [17],512 µg/mL
same,MIC,Pseudomonas aeruginosa [18],128 µg/mL
same,MIC,Pseudomonas aeruginosa [19],32 µg/mL
same,MIC,Klebsiella pneumoniae,128 µg/mL
same,Activity,Cell membrane [11],Active
same,Activity,Cell membrane [12],Active
same,Flu intensity,Cell membrane [20],781
same,Activity,Cell membrane [9],Active
same,Activity,Cell membrane [10],Active
same,Activity,Cell membrane [24],Active
same,Activity,Cell membrane [25],Active
same,Activity,Lipid bilayer,10%
same,Flu intensity,Cell membrane [21],30000
same,Activity,Cell membrane [26],Active
same,Activity,Cell membrane [27],Active
same,Activity,Staphylococcus aureus [28],Active
same,Activity,Staphylococcus aureus [29],Dose-dependent-effect
same,Activity,Lipopolysaccharide (LPS) [30],> 90%
same,Kd,Lipopolysaccharide (LPS) [22],0.152 µM
same,Activity,Lipopolysaccharide (LPS) [31],Active
same,Activity,Lipopolysaccharide (LPS) [32],Dose-dependent-effect
same,Flu intensity,Lipopolysaccharide (LPS) [33],21.5
same,Flu intensity,Lipopolysaccharide (LPS) [34],195
same,Activity,Escherichia coli [35],Active
same,Activity,Escherichia coli [36],Active
same,Activity,Escherichia coli [37],32.5%
same,Activity,Escherichia coli [38],44.8%

# Source: ChEMBL document CHEMBL6134824, “LPS-enriched interaction drives spectrum conversion in antimicrobial peptides: Design and optimization of AA16 derivatives for targeting gram-negative bacteria” (Eur J Med Chem, 2025)
